Measurements from patent publication US20130150363A1, “Method of Treating Cancer Using a cMET and AXL Inhibitor and an ErbB Inhibitor” (GlaxoSmithKline, priority 2008, published 2013).
pIC50: −log10 of the molar value.

What was measured:
Format in all cases: cell-based
[1] = test system: NCI-H596 lung carcinoma cells; experiment: Cell growth inhibition (CellTiter-Glo), NCI-H596; conditions: Homo sapiens, NCI-H596, 72 h, 3 days
Text: (§1) Esophageal carcinoma cell line OE33 was purchased from ECACC European Collection of Cell Cultures (UK). Breast cancer cell line JIMT-1 and gastric carcinoma cell line MKN-45 were purchased from Deutsche Sammlung von Mikroorganismen and Zellkulturen GmbH (Germany); KPL-4, a human breast cancer cell line was kindly provided by Prof. J Kurebayashi (Kawasaki Medical School, Kurashiki, Japan). […] The LICR-LON-HN5 head and neck carcinoma cell line (HN5) was a gift from the Institute of Cancer Research, Surrey, U.K. HN5C12 was developed by single-cell cloning of HN5 followed by exposure to increasing concentrations of lapatinib. […] Cell growth inhibition was determined via CellTiter-Glo cell viability assays. […] BT474-J4 and HN5C12 were washed with PBS and plated in their culture media without lapatinib. […] ATP levels were determined by adding Cell Titer Glo0 (Promega), incubating for 20 minutes then the luminescent signal was read on the SpectraMax M5 plate with a 0.5 second integration time. Cell growth was calculated relative to vehicle (DMSO) treated control wells. […] y=([…]) where A is the minimum response (ymin), B is the maximum response (ymax), c is the inflection point of the curve (EC50), d is the Hill coefficient, and x is the log10 compound concentration (moles/L). CI values were calculated with the interpolated IC50 values and the mutually non-exclusive equation derived by Chou and […](a)+Db/IC50(b)+(Da×Db)/(IC50(a)×IC50(b)) where IC50(a) is the IC50 of the inhibitor A; IC50(b) is the IC50 for the inhibitor B; […] Excess Over Highest Single Agent (EOHSA) is defined as a statistically significant improvement in the combination compared to the component monotherapies. […] See Borisy et al. (2003) or Hung et al. (1993) for examples and discussion. Analysis was conducted using two-factor analysis of variance with interaction (model terms were dose of drug A, dose of drug B, and interaction between doses of drug A and B), followed by linear contrasts between each combination group and corresponding monotherapies. Analysis was conducted using SAS (version 9, provided by SAS Institute, Cary, N.C.). EOHSA at each dose was calculated as the minimum difference in average % inhibition between the combination and each monotherapy, from the appropriate ANOVA contrast. Since there are many comparisons for the % inhibition endpoint, p-value adjustment for multiple comparisons was performed. Hommel's procedure was implemented in order to improve the power while retaining […] Error Rate (FWE) control by using a sequentially rejective method. The p-values for both synergy and antagonism were calculated using this adjustment.

[2] = test system: NCI-H2170 lung carcinoma cells; experiment: Cell growth inhibition (CellTiter-Glo), NCI-H2170; conditions: Homo sapiens, NCI-H2170, 72 h, 3 days
Text: as §1

[3] = test system: NCI-H1648 lung carcinoma cells; experiment: Cell growth inhibition (CellTiter-Glo), NCI-H1648; conditions: Homo sapiens, NCI-H1648, 72 h, 3 days
Text: Esophageal carcinoma cell line OE33 was purchased from ECACC European Collection of Cell Cultures (UK). Breast cancer cell line JIMT-1 and gastric carcinoma cell line MKN-45 were purchased from Deutsche Sammlung von Mikroorganismen and Zellkulturen GmbH (Germany); KPL-4, a human breast cancer cell line was kindly provided by Prof. J Kurebayashi (Kawasaki Medical School, Kurashiki, Japan). […] The LICR-LON-HN5 head and neck carcinoma cell line (HN5) was a gift from the Institute of Cancer Research, Surrey, U.K. HN5C12 was developed by single-cell cloning of HN5 followed by exposure to increasing concentrations of lapatinib. […] Cell growth inhibition was determined via CellTiter-Glo cell viability assays. […] BT474-J4 and HN5C12 were washed with PBS and plated in their culture media without lapatinib. […] ATP levels were determined by adding Cell Titer Glo0 (Promega), incubating for 20 minutes then the luminescent signal was read on the SpectraMax M5 plate with a 0.5 second integration time. Cell growth was calculated relative to vehicle (DMSO) treated control wells. […] Excess Over Highest Single Agent (EOHSA) is defined as a statistically significant improvement in the combination compared to the component monotherapies. […] Analysis was conducted using two-factor analysis of variance with interaction (model terms were dose of drug A, dose of drug B, and interaction between doses of drug A and B), followed by linear contrasts between each combination group and corresponding monotherapies. Analysis was conducted using SAS (version 9, provided by SAS Institute, Cary, N.C.). EOHSA at each dose was calculated as the minimum difference in average % inhibition between the combination and each monotherapy, from the appropriate ANOVA contrast. Since there are many comparisons for the % inhibition endpoint, p-value adjustment for multiple comparisons was performed. Hommel's procedure was implemented in order to improve the power while retaining […] Error Rate (FWE) control by using a sequentially rejective method. The p-values for both synergy and antagonism were calculated using this adjustment.

[4] = test system: NCI-H441 lung carcinoma cells; experiment: Cell growth inhibition (CellTiter-Glo), NCI-H441; conditions: Homo sapiens, NCI-H441, 72 h, 3 days
[5] = test system: Detroit 562 head and neck squamous cell carcinoma cells; experiment: Cell growth inhibition (CellTiter-Glo), Detroit 562; conditions: Homo sapiens, Detroit 562, 72 h, 3 days
Text: as §1

[6] = test system: SCC12 head and neck squamous cell carcinoma cells; experiment: Cell growth inhibition (CellTiter-Glo), SCC12; conditions: Homo sapiens, SCC12, 72 h, 3 days
Text: as §1

[7] = test system: KPL-4 breast cancer cells; experiment: Cell growth inhibition (CellTiter-Glo), KPL-4; conditions: Homo sapiens, KPL4, 72 h, 3 days
Text: as §1

[8] = test system: NCI-H2342 lung carcinoma cells; experiment: Cell growth inhibition (CellTiter-Glo), NCI-H2342; conditions: Homo sapiens, NCI-H2342, 72 h, 3 days
Text: as §1

[9] = test system: NCI-H69 lung carcinoma cells; experiment: Cell growth inhibition (CellTiter-Glo), NCI-H69; conditions: Homo sapiens, NCI-H69, 72 h, 3 days
Text: as §1

[10] = test system: NCI-H1993 lung carcinoma cells; experiment: Cell growth inhibition (CellTiter-Glo), NCI-H1993; conditions: Homo sapiens, NCI-H1993, 72 h, 3 days
Text: as §1

Row | pIC50 ([1]; lung_H596, +HGF (2 ng/mL)) | pIC50 ([1]; lung_H596, −HGF) | pIC50 ([2]; lung_H2170, +HGF (2 ng/mL)) | pIC50 ([2]; lung_H2170, −HGF) | pIC50 ([3]; lung_H1648, +HGF (2 ng/mL)) | pIC50 ([3]; lung_H1648, −HGF) | pIC50 ([4]; lung_H441, +HGF (2 ng/mL)) | pIC50 ([4]; lung_H441, −HGF) | pIC50 ([5]; hn_Detroit562, +HGF (2 ng/mL)) | pIC50 ([5]; hn_Detroit562, −HGF) | pIC50 ([6]; hn_SCC12, +HGF (2 ng/mL)) | pIC50 ([6]; hn_SCC12, −HGF) | pIC50 ([7]; breast_KPL4, +HGF (2 ng/mL)) | pIC50 ([7]; breast_KPL4, −HGF) | pIC50 ([8]; lung_H2342, +HGF (2 ng/mL)) | pIC50 ([8]; lung_H2342, −HGF) | pIC50 ([9]; lung_H69, +HGF (2 ng/mL)) | pIC50 ([9]; lung_H69, −HGF) | pIC50 ([10]; lung_H1993, +HGF (2 ng/mL)) | pIC50 ([10]; lung_H1993, −HGF) | SMILES
1 | < 5.00 | < 5.00 | 5.37 | 6.59 | < 5.00 | 5.13 | < 5.00 | < 5.00 | 5.33 | 5.40 | < 5.00 | < 5.00 | 6.05 | 6.00 | 5.18 | 5.17 | 5.32 | 5.27 | < 5.00 | < 5.00 | CS(=O)(=O)CCNCc1ccc(-c2ccc3ncnc(Nc4ccc(OCc5cccc(F)c5)c(Cl)c4)c3c2)o1 [Lapatinib, N-(3-chloro-4-{[(3-fluorophenyl)methyl]oxy}phenyl)-6-[5-({[2-(methylsulfonyl)ethyl]amino}methyl)-2-furanyl]-4-quinazolinamine]
2 | < 5.00 | < 5.00 | 5.11 | 5.89 | < 5.00 | < 5.00 | < 5.00 | < 5.00 | < 5.00 | < 5.00 | < 5.00 | < 5.00 | < 5.00 | < 5.00 | < 5.00 | < 5.00 | < 5.00 | < 5.00 | < 5.00 | 5.09 | C#Cc1cccc(Nc2ncnc3cc(OCCOC)c(OCCOC)cc23)c1 [Erlotinib, N-(3-ethynylphenyl)-6,7-bis{[2-(methyloxy)ethyl]oxy}-4-quinazolinamine]
